{"source": "PubChem BioAssay AID1259409", "about": "(Chemical Carcinogenesis Research Information System (CCRIS), 2018)", "origin": "cited, not measured here", "tested_on": "rodent chemically induced tumor inhibition, incidence and multiplicity", "experiment": "CCRIS tumor inhibitor studies"}
{"compound": "CCCCCCCCCCCC(=O)OCC(COC(=O)CCCCCCCCCCC)OC(=O)CCCCCCCCCCC", "values": [{"measurement": "tumour outcome (control, treated, inhibition, significance)", "setting": "Carcinogen: DIMETHYLBENZANTHRACENE, 57-97-6, Dose [Inhibitor]: APPLIED 3 MIN POST EACH PROMOTER DOSE 3/WK FOR 20 WK BEGINNING 3 D POST CARCINOGEN DOSE (STUDY DURATION: 20 WK), Route [Inhibitor]: DERMAL, Species: MOUSE, Strain/Sex: SWISS/?, Target Tissue: Type of Lesion: SKIN: TUMOR, Dose [Carcinogen]: 250 UG/0.25 ML ONCE, Promoter: CROTON OIL, 8001-28-3", "value": "100%, 0%, 100%, not calculated"}]}
{"compound": "O=c1cc(-c2ccc(O)c(O)c2)oc2cc(O)cc(O)c12", "values": [{"measurement": "tumour outcome (control, treated, inhibition, significance)", "setting": "Carcinogen: 7,12-DIMETHYLBENZ[A]ANTHRACENE, 57-97-6, Dose [Inhibitor]: 0, 0.2 ML OF A 1% SOLUTION 1/D FOR 2 WK APPLIED 5 MIN POST EACH CARCINOGEN DOSE THEN 1/D FOR 4 WK DURING PROMOTION STAGE, Route [Inhibitor]: DERMAL, Species: MOUSE, Strain/Sex: SWISS/MALE, Target Tissue: Type of Lesion: SKIN: PAPILLOMA, Dose [Carcinogen]: 0.2 ML OF A 0.24% SOLUTION IN DMSO 1/D FOR 2 WK, Promoter: CROTON OIL, 8001-28-3", "value": "23/23 (100%), 10/24 (42%), 58%, not calculated"}, {"measurement": "tumour outcome (control, treated, inhibition, significance)", "setting": "Carcinogen: 7,12-DIMETHYLBENZ[A]ANTHRACENE, 57-97-6, Dose [Inhibitor]: 0, 0.2 ML OF A 1% SOLUTION 1/D FOR 2 WK APPLIED 5 MIN PRIOR TO EACH CARCINOGEN DOSE (STUDY DURATION: 20 WK), Route [Inhibitor]: DERMAL, Species: MOUSE, Strain/Sex: SWISS/MALE, Target Tissue: Type of Lesion: SKIN: PAPILLOMA, Dose [Carcinogen]: 0.2 ML OF A 0.24% SOLUTION IN DMSO 1/D FOR 2 WK, Promoter: CROTON OIL, 8001-28-3", "value": "23/23 (100%), 20/23 (87%), 13%, not calculated"}]}
{"compound": "CN(C)CCOc1ccc([C@H]2C[C@]3(C)[C@@H](O)CC[C@H]3[C@@H]3CCc4cc(O)ccc4[C@H]32)cc1", "values": [{"measurement": "tumour outcome (control, treated, inhibition, significance)", "setting": "Carcinogen: ESTRADIOL, 50-28-2, Dose [Inhibitor]: 0, 25 MG/PELLET 2 PELLETS IMPLANTED EVERY 3 MO BEGINNING 15 D PRIOR TO CARCINOGEN DOSE (STUDY DURATION: 8 MO), Route [Inhibitor]: SUBCUTANEOUS IMPLANT, Species: HAMSTER, Strain/Sex: SYRIAN/MALE, Target Tissue: Type of Lesion: KIDNEY: TUMOR, Dose [Carcinogen]: 25 MG PELLET IMPLANTED EVERY 3 MO, Promoter: NONE USED", "value": "5/5 (100%), 7/8 (88%), 12%, not significant"}]}
{"compound": "C/C=C/C1=CC2=CC3=C(C(=O)CCCCCCC)C(=O)O[C@@]3(C)C(=O)C2=CO1", "values": [{"measurement": "tumour outcome (control, treated, inhibition, significance)", "setting": "Carcinogen: 7,12-DIMETHYLBENZ[A]ANTHRACENE, 57-97-6, Dose [Inhibitor]: 0, 2 UMOL 2/WK FOR 18 WK APPLIED 30 MIN PRIOR TO EACH PROMOTER DOSE BEGINNING 1 WK POST CARCINOGEN DOSE (STUDY DURATION:, Route [Inhibitor]: DERMAL, Species: MOUSE, Strain/Sex: ICR/FEMALE, Target Tissue: Type of Lesion: SKIN: PAPILLOMA, Dose [Carcinogen]: 50 UG ONCE, Promoter: 12-O-TETRADECANOYLPHORBOL-13-ACETATE, 16561-29-8", "value": "100%, 7%, 93%, not calculated"}]}
